Source: US8586755B2, “Substituted nicotinamides as KCNQ2/3 modulators” (Grünenthal GmbH, priority 2009, dated 2013)

Target: T1, KCNQ2/3 channels (Homo sapiens, UniProt O43525+O43526)
T1 construct: expressed in transfected cells
Test: Fluorescence assay using a voltage sensitive dye (fluorimetry)
Format: cell-based
Details: CHO-K1 cells expressing KCNQ2/3 channels; for EC50: agonistic activity; for Emax / Fluorimetry % efficacy (retigabine 50 μM = 100%): retigabine 50 μM = 100%; for Emax: read-out: Fluorimetry % efficacy (retigabine 50 μM = 100%)
Method: Pharmacological Experiments Fluorescence Assay Using a Voltage Sensitive Dye
Human CHO-K1 cells expressing KCNQ2/3 channels are cultivated adherently at 37° C., 5% CO2 and 95% humidity in cell culture bottles (e.g. 80 cm^2 TC flasks, Nunc) with DMEM-high glucose (Sigma Aldrich, D7777) including 10% FCS (PAN Biotech, e.g. 3302-P270521) or alternatively MEM Alpha Medium (1×, liquid, Invitrogen, #22571), 10% fetal calf serum (FCS) (Invitrogen, #10270-106, heat-inactivated) and the necessary selection antibiotics.
Before being sown out for the measurements, the cells are washed with a 1×DPBS buffer without Ca^2+/Mg^2+ (e.g. Invitrogen, #14190-094) and detached from the bottom of the culture vessel by means of Accutase (PAA Laboratories, #L11-007) (incubation with Accutase for 15 min at 37° C.). The cell count then present is determined using a CASY™ cell counter (TCC model, Schärfe System) in order subsequently to apply, depending on the density optimization for the individual cell line, 20,000-30,000 cells/well/100 μl of the described nutrient medium to 96-well measuring plates of the Corning™ CellBIND™ type (Flat Clear Bottom Black Polystyrene Microplates, #3340). Incubation is then carried out for one hour at room temperature, without gassing or adjusting the humidity, followed by incubation for 24 hours at 37° C., 5% CO2 and 95% humidity.
The voltage-sensitive fluorescent dye from the Membrane Potential Assay Kit (Red™ Bulk format part R8123 for FLIPR, MDS Analytical Technologies™) is prepared by dissolving the contents of a vessel Membrane Potential Assay Kit Red Component A in 200 ml of extracellular buffer (ES buffer, 120 mM NaCl, 1 mM KCl, 10 mM HEPES, 2 mM CaCl2, 2 mM MgCl2, 10 mM glucose; pH 7.4). After removal of the nutrient medium, the cells are washed with 200 μl of ES buffer, then covered with a layer of 100 μl of the dye solution prepared above and incubated for 45 min at room temperature with the exclusion of light.
The fluorescence measurements are carried out with a BMG Labtech FLUOstar™ BMG Labtech NOVOstar™ or BMG Labtech POLARstar™ instrument (525 nm excitation, 560 nm emission, Bottom Read mode). After incubation of the dye, 50 μl of the test substances in the desired concentrations, or 50 μl of ES buffer for control purposes, are introduced into separate cavities of the measuring plate and incubated for 30 min at room temperature while being shielded from light. The fluorescence intensity of the dye is then measured for 5 min and the fluorescence value F1 of each well is thus determined at a given, constant time. 15 μl of a […] KCl solution ([…]) are then added to each well. The change in fluorescence is subsequently measured until all the relevant measured values have been obtained (mainly 5-30 min). At a given time after KCl application, a fluorescence value F2 is determined, in this case at the time of the fluorescence peak.
For calculation, the fluorescence intensity F2 is compared with the fluorescence intensity F1, and the agonistic activity of the target compound on the potassium channel is determined therefrom. F2 and F1 are calculated as follows: […]
In order to determine whether a substance has agonistic activity,
A substance has an agonistic activity on the potassium channel when
[formula] it is possible to conclude that a target compound has agonistic activity if an increase in
[formula] is to be observed as the dosage of the target compound increases.
Calculations of EC50 values are carried out with the aid of ‘Prism v4.0’ software (GraphPad Software™).

SMILES | EC50 [µM] | Emax [%] | Fluorimetry % efficacy (retigabine 50 μM = 100%) [%]
O=C(NCC1CC2CCC1C2)c1cccnc1CCCCc1cccc(C(F)(F)F)c1 (stereo not drawn) [compound 26, N-(5-Bicyclo[2.2.1]heptanyl-methyl)-2-[4-[3-(trifluoromethyl)phenyl]-butyl]-pyridine-3-carboxylic acid amide] | 0.126 | 244 | –
O=C(NCC1CCOC1)c1cccnc1SCCC(F)(F)c1ccc(F)cc1 (stereo not drawn) [compound 187, 2-[[3,3-Difluoro-3-(4-fluorophenyl)-propyl]sulfanyl]-N-(tetrahydro-furan-3-yl-methyl)-pyridine-3-carboxylic acid amide] | 0.805 | 231 | –
O=C(NCc1ccc(F)cc1)c1cccnc1SCCC(F)(F)c1ccc(F)c(F)c1 [compound 204, 2-[[3-(3,4-Difluoro-phenyl)-3,3-difluoro-propyl]sulfanyl]-N-[(4-fluorophenyl)-methyl]-pyridine-3-carboxylic acid amide] | 0.011 | 125 | –
O=C(O)c1cccc(CNC(=O)c2cccnc2SCCCc2ccc(F)cc2)c1 [compound 131] | – | – | 25
O=C(NCc1cccs1)c1cccnc1SCCOc1cccc(C(F)(F)F)c1 [compound 4, N-(Thiophen-2-yl-methyl)-2-[2-[3-(trifluoromethyl)-phenoxy]-ethylsulfanyl]-pyridine-3-carboxylic acid amide] | 0.772 | 126 | –
Cc1ccc(CNC(=O)c2cccnc2SCCCc2ccc(F)cc2)o1 [compound 175, 2-[3-(4-Fluorophenyl)-propylsulfanyl]-N-[(5-methyl-furan-2-yl)-methyl]-pyridine-3-carboxylic acid amide] | 0.126 | 173 | –
O=C(NCC1CC2CCC1C2)c1cccnc1SCCCc1ccc(Cl)cc1 (stereo not drawn) [compound 35, N-(5-Bicyclo[2.2.1]heptanyl-methyl)-2-[3-(4-chlorophenyl)-propylsulfanyl]-pyridine-3-carboxylic acid amide] | 0.242 | 221 | –
O=C(NCc1ccc(F)c(F)c1)c1cccnc1SCCCc1ccc(F)cc1 [compound 71, N-[(3,4-Difluoro-phenyl)-methyl]-2-[3-(4-fluorophenyl)-propylsulfanyl]-pyridine-3-carboxylic acid amide] | 0.072 | 107 | –
CC(CCc1ccc(F)cc1)Sc1ncccc1C(=O)NCc1ccc(F)cc1 (stereo not drawn) [compound 176, N-[(4-Fluorophenyl)-methyl]-2-[[3-(4-fluorophenyl)-1-methyl-propyl]sulfanyl]-pyridine-3-carboxylic acid amide] | 0.04 | 108 | –
O=C(NCC1CC2CCC1C2)c1cccnc1SCCCc1cc(F)cc(F)c1 (stereo not drawn) [compound 61, N-(5-Bicyclo[2.2.1]heptanyl-methyl)-2-[3-(3,5-difluoro-phenyl)-propylsulfanyl]-pyridine-3-carboxylic acid amide] | 0.221 | 283 | –
O=C(NCC1CCCO1)c1cccnc1SCCCc1ccc(F)cc1 (stereo not drawn) [compound 181, 2-[3-(4-Fluorophenyl)-propylsulfanyl]-N-(tetrahydro-furan-2-yl-methyl)-pyridine-3-carboxylic acid amide] | 1.55 | 254 | –
O=C(NCC1CC2CCC1C2)c1cccnc1SCCCc1cccc2ccccc12 (stereo not drawn) [compound 52, N-(5-Bicyclo[2.2.1]heptanyl-methyl)-2-(3-naphthalen-1-yl-propylsulfanyl)-pyridine-3-carboxylic acid amide] | 0.496 | 190 | –
C[C@@H](CCc1ccccc1)Sc1ncccc1C(=O)NCCC(C)(C)C [compound 154, N-(3,3-Dimethyl-butyl)-2-[[(1S)-1-methyl-3-phenyl-propyl]sulfanyl]-pyridine-3-carboxylic acid amide] | 0.237 | 207 | –
O=C(O)CCNC(=O)c1cccnc1SCCC(F)(F)c1ccc(F)cc1 [compound 197, 3-[[2-[[3,3-Difluoro-3-(4-fluorophenyl)-propyl]sulfanyl]-pyridine-3-carbonyl]amino]-propionic acid] | 14.7 | 128 | –

The remaining compounds from weak to strong by EC50, led by results:

EC50 [µM] | Emax [%] | Fluorimetry % efficacy (retigabine 50 μM = 100%) [%] | SMILES
3.71 | 190 | – | COC(=O)CCNC(=O)c1cccnc1SCCC(F)(F)c1ccc(F)cc1 [compound 196, 3-[[2-[[3,3-Difluoro-3-(4-fluorophenyl)-propyl]sulfanyl]-pyridine-3-carbonyl]amino]-propionic acid methyl ester]
3.13 | 191 | – | O=C(NCC1CC2CCC1C2)c1cccnc1CCCS(=O)(=O)c1cccc(C(F)(F)F)c1 (stereo not drawn) [compound 32, N-(5-Bicyclo[2.2.1]heptanyl-methyl)-2-[3-[[3-(trifluoromethyl)phenyl]sulfonyl]-propyl]-pyridine-3-carboxylic acid amide]
2.92 | 170 | – | O=C(NCc1cccs1)c1cccnc1CCCS(=O)(=O)c1cccc(C(F)(F)F)c1 [compound 12, N-(Thiophen-2-yl-methyl)-2-[3-[[3-(trifluoromethyl)phenyl]sulfonyl]-propyl]-pyridine-3-carboxylic acid amide]
1.51 | – | 175 | O=C(NCc1ccccn1)c1cccnc1SCCCc1ccc(F)cc1 [compound 143]
0.667 | 95 | – | O=C(NCc1cccc(-c2ccccn2)c1)c1cccnc1SCCCc1ccc(F)cc1 [compound 151, 2-[3-(4-Fluorophenyl)-propylsulfanyl]-N-[(3-pyridin-2-yl-phenyl)-methyl]-pyridine-3-carboxylic acid amide]
0.627 | – | 177 | CC(C)(C)C(O)CNC(=O)c1cccnc1SCCCc1ccc(F)cc1 (stereo not drawn) [compound 126]
0.315 | 210 | – | O=C(NCC1CCCOC1)c1cccnc1SCCC(F)(F)c1ccc(F)cc1 (stereo not drawn) [compound 188, 2-[[3,3-Difluoro-3-(4-fluorophenyl)-propyl]sulfanyl]-N-(tetrahydro-pyran-3-yl-methyl)-pyridine-3-carboxylic acid amide]
0.113 | 290 | – | CC(CCc1ccccc1)Sc1ncccc1C(=O)NCC1CC2CCC1C2 (stereo not drawn) [compound 67, N-(5-Bicyclo[2.2.1]heptanyl-methyl)-2-[(1-methyl-3-phenyl-propyl)sulfanyl]-pyridine-3-carboxylic acid amide]
0.101 | 103 | – | O=C(NCc1ccc(OC(F)(F)F)cc1)c1cccnc1SCCCc1ccc(F)cc1 [compound 79, 2-[3-(4-Fluorophenyl)-propylsulfanyl]-N-[[4-(trifluoromethyloxy)-phenyl]-methyl]-pyridine-3-carboxylic acid amide]
0.085 | 85 | – | O=C(NCc1ccc2c(c1)CCO2)c1cccnc1SCCCc1ccc(F)cc1 [compound 72, N-(2,3-Dihydro-benzofuran-5-yl-methyl)-2-[3-(4-fluorophenyl)-propylsulfanyl]-pyridine-3-carboxylic acid amide]
0.049 | 100 | – | O=C(NCc1cccc(F)c1)c1cccnc1SCCCc1ccc(F)cc1 [compound 64, N-[(3-Fluorophenyl)-methyl]-2-[3-(4-fluorophenyl)-propylsulfanyl]-pyridine-3-carboxylic acid amide]
0.043 | 109 | – | Cc1cccc(CNC(=O)c2cccnc2SCCC(F)(F)c2ccc(F)cc2)c1 [compound 183, 2-[[3,3-Difluoro-3-(4-fluorophenyl)-propyl]sulfanyl]-N-(m-tolyl-methyl)-pyridine-3-carboxylic acid amide]
